In patent US20240174690A1, “ANNULATED 2-AMINO-3-CYANO THIOPHENES AND DERIVATIVES FOR THE TREATMENT OF CANCER” (BOEHRINGER INGELHEIM INTERNATIONAL GMBH, priority 2021, published 2024):
Converted amounts (≈) assume the structure as drawn. Like-named read-outs stand apart in the source and are kept apart here.

What was measured:
[1] = Solubility measurement (DMSO solution method), McIlvaine buffer pH 4.5 or 6.8; type: physicochemical; settings: aqueous buffer, kinetic from dmso stock, DMSO stock diluted to 250 μM, 24 h shaking at ambient temperature
How it was run: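 DMSO stock diluted into McIlvaine buffer, pH 4.5 or 6.8, to 250 µM final, shaken 24 h at ambient temperature. Precipitate removed by filtration; filtrate quantified by LC-UV against a fully dissolved reference in acetonitrile/water 1:1.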

[2] = system: KRAS G12V-dependent Ba/F3 cells; assay: Ba/F3 proliferation assay, KRAS G12V; type: cell-based; settings: Mus musculus, BaF3, 72 h, AlamarBlue;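 note: proliferation IC50 in KRAS G12V-dependent Ba/F3 cells read by AlamarBlue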
How it was run: (§1)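 Viability is measured as AlamarBlue fluorescence in Ba/F3 cells that depend on a transduced mutant KRAS isoform for growth without IL-3. Each treatment is run in technical duplicate, and dose-response curves are fitted.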

KRAS (G12D)::SOS1 = KRAS (G12D)::SOS1 (Homo sapiens (Human), UniProt P01116, G12D); assay: KRAS::SOS1 AlphaScreen binding assay, KRAS G12D
Chain of KRAS (G12D)::SOS1 (P01116 other isoform, or with tags, fused parts or gaps G12D): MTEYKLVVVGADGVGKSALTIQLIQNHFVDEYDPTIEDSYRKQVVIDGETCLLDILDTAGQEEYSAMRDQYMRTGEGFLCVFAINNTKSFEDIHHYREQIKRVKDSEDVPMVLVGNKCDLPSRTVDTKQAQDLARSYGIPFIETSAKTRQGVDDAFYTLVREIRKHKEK
How it was run: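 AlphaScreen measurement of compound disruption of biotinylated, GDP-loaded KRAS 1-169 (10 nM; G12C 7.5 nM) binding to GST-SOS1 564-1049 (5 nM with G12D/G12C, 10 nM otherwise), with 10 μM GDP in PBS/0.1% BSA/0.05% Tween 20. Timing was 30 min compound preincubation, then 60 min with beads at room temperature; top concentration 100 μM, 4-parameter IC50.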

[3] = system: KRAS G12D-dependent Ba/F3 cells; assay: Ba/F3 proliferation assay, KRAS G12D; type: cell-based; settings: Mus musculus, BaF3, 72 h, AlamarBlue
How it was run: as §1

[4] = McIlvaine buffer pH 4.5, read-out: solubility pH 4.5
[5] = McIlvaine buffer pH 6.8, read-out: solubility pH 6.8

SMILES | solubility at 24 h [1, 4] | solubility at 24 h [1, 5] | IC50 [2] | IC50 (KRAS (G12D)::SOS1) | IC50 [3]
C[C@H](Oc1cc(-c2cccc(C(N)=O)c2)nc(-c2noc3c2CCC[C@@]32CCCc3sc(N)c(C#N)c32)n1)[C@@H]1CCCN1C [II-133] | 3 µg/mL (≈ 4.92 µM) | < 1 µg/mL | 19 nM | 6 nM | 248 nM
C[C@H](O)Cn1ncc(-c2cc(O[C@@H](C)[C@@H]3CCCN3C)nc(-c3noc4c3CCC[C@@]43CCCc4sc(N)c(C#N)c43)n2)n1 [II-134] | 116 µg/mL (≈ 188 µM) | 105 µg/mL (≈ 171 µM) | 28 nM | 4 nM | 1170 nM
C[C@H]1CNCCCN1c1cc(-c2ccn(C)n2)nc(-c2noc3c2CCC[C@@]32CCCc3sc(N)c(C#N)c32)n1 [II-140] | 82 µg/mL (≈ 148 µM) | 8 µg/mL (≈ 14.4 µM) | – | 22 nM | 2240 nM
C[C@H](Oc1cc(-n2cc3c(n2)CCN(C)C3)nc(-c2noc3c2CCC[C@@]32CCCc3sc(N)c(C#N)c32)n1)[C@@H]1CCCN1C [II-141] | 123 µg/mL (≈ 197 µM) | 83 µg/mL (≈ 133 µM) | 170 nM | 2 nM | 14 nM
C[C@H]1CNCCCN1c1cc(-n2ccnc2)nc(-c2noc3c2CCC[C@@]32CCCc3sc(N)c(C#N)c32)n1 [II-142] | 86 µg/mL (≈ 159 µM) | 10 µg/mL (≈ 18.5 µM) | 1770 nM | 25 nM | 5860 nM
C[C@H](Oc1cc(N2CCOC2=O)nc(-c2noc3c2CCC[C@@]32CCCc3sc(N)c(C#N)c32)n1)[C@@H]1CCCN1C [II-143] | > 123 µg/mL | 91 µg/mL (≈ 158 µM) | 2 nM | 1 nM | 3 nM
C[C@H](Oc1cc(-c2ccn(C)n2)nc(-c2noc3c2CCC[C@@]32CCCc3sc(N)c(C#N)c32)n1)[C@@H]1C[C@H](F)CN1C [II-144] | 105 µg/mL (≈ 178 µM) | < 1 µg/mL | – | 14 nM | 4 nM
C[C@H](Oc1cc(N2CCN(C)C3(COC3)C2)nc(-c2noc3c2CCC[C@@]32CCCc3sc(N)c(C#N)c32)n1)[C@@H]1C[C@@H](F)CN1C [II-148] | > 146 µg/mL | < 1 µg/mL | 162 nM | 1 nM | 14 nM
C[C@H](Oc1cc(N2CCN(C)C3(CC3)C2)nc(-c2noc3c2CCC[C@@]32CCCc3sc(N)c(C#N)c32)n1)[C@@H]1C[C@@H](F)CN1C [II-149] | > 164 µg/mL | < 1 µg/mL | 412 nM | 1 nM | 18 nM
C[C@H](Oc1cc(N2CCNC3(COC3)C2)nc(-c2noc3c2CCC[C@@]32CCCc3sc(N)c(C#N)c32)n1)[C@@H]1C[C@@H](F)CN1C [II-150] | > 149 µg/mL | 57 µg/mL (≈ 89.8 µM) | 77 nM | 1 nM | 3 nM
C[C@H](Oc1cc(N2CCN(C)C3(CCOC3)C2)nc(-c2noc3c2CCC[C@@]32CCCc3sc(N)c(C#N)c32)n1)[C@@H]1C[C@@H](F)CN1C (stereo partly drawn) [II-151] | > 161 µg/mL | < 1 µg/mL | 655 nM | 2 nM | 53 nM
CO[C@@H]1C[C@@H]([C@H](C)Oc2cc(N3CCN(C)C4(CC4)C3)nc(-c3noc4c3CCC[C@@]43CCCc4sc(N)c(C#N)c43)n2)N(C)C1 [II-152] | > 132 µg/mL | 61 µg/mL (≈ 94.6 µM) | 1190 nM | 3 nM | 68 nM
C[C@H](Oc1cc(N2CC3COCC(C2)N3)nc(-c2noc3c2CCC[C@@]32CCCc3sc(N)c(C#N)c32)n1)[C@@H]1CCCN1C [II-160] | – | – | 2010 nM | 2 nM | 429 nM
C[C@@H]1CN(c2cc(O[C@@H](C)[C@@H]3CCCN3C)nc(-c3noc4c3CCC[C@@]43CCCc4sc(N)c(C#N)c43)n2)CCN1 [II-161] | – | – | 971 nM | 2 nM | 250 nM
C[C@H](NC(=O)c1ccn(-c2cc(O[C@@H](C)[C@@H]3CCCN3C)nc(-c3noc4c3CCC[C@@]43CCCc4sc(N)c(C#N)c43)n2)n1)c1ccccn1 [II-191] | 73 µg/mL (≈ 104 µM) | 12 µg/mL (≈ 17 µM) | – | 1 nM | 11 nM
C[C@H](Oc1cc(-n2cc3ccn([C@@H](C)c4ccccn4)c(=O)c3n2)nc(-c2noc3c2CCC[C@@]32CCCc3sc(N)c(C#N)c32)n1)[C@@H]1CCCN1C [II-205] | – | – | 6 nM | 8 nM | 85 nM
C[C@H](Oc1cc(-n2ccc(-c3cn([C@H]4CCOC4)nn3)n2)nc(-c2noc3c2CCC[C@@]32CCCc3sc(N)c(C#N)c32)n1)[C@@H]1CCCN1C [II-212] | 16 µg/mL (≈ 23.1 µM) | < 1 µg/mL | – | 1 nM | 10 nM
